Experimental data: ChEMBL document CHEMBL1145369, “The discovery of 2-amino-3,5-diarylbenzamide inhibitors of IKK-alpha and IKK-beta kinases” (Bioorg Med Chem Lett, 2007)
Active and inactive are the calls of the source. No cut-off for these calls is given here.

Experiments:
[1] = biological target: T1, Inhibitor of nuclear factor kappa-B kinase subunit beta (Homo sapiens, UniProt O14920)
T1 sequence (O14920 whole entry): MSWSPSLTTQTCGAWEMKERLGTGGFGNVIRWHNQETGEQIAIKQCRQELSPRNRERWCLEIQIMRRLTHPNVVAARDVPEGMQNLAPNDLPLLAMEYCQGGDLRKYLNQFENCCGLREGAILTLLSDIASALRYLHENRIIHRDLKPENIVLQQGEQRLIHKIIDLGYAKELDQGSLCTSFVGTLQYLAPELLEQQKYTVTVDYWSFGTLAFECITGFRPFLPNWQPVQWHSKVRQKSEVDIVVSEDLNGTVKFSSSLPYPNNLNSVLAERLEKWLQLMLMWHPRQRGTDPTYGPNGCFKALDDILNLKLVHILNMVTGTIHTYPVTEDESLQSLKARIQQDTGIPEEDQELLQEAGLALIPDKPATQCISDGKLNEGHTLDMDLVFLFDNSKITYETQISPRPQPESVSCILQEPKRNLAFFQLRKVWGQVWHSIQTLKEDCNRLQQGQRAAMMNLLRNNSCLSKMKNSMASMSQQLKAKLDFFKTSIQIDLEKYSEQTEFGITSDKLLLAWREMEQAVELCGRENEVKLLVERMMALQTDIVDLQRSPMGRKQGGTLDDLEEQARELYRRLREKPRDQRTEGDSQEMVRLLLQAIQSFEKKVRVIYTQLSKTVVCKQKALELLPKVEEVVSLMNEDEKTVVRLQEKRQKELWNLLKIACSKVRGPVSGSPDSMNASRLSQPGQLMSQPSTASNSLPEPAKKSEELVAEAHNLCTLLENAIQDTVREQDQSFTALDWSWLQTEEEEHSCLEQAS
Description: Inhibition of human recombinant GST-IKKbeta by TR-FRET assay

[2] = biological target: T2, Inhibitor of nuclear factor kappa-B kinase subunit epsilon (Homo sapiens, UniProt Q14164)
T2 sequence (Q14164 whole entry): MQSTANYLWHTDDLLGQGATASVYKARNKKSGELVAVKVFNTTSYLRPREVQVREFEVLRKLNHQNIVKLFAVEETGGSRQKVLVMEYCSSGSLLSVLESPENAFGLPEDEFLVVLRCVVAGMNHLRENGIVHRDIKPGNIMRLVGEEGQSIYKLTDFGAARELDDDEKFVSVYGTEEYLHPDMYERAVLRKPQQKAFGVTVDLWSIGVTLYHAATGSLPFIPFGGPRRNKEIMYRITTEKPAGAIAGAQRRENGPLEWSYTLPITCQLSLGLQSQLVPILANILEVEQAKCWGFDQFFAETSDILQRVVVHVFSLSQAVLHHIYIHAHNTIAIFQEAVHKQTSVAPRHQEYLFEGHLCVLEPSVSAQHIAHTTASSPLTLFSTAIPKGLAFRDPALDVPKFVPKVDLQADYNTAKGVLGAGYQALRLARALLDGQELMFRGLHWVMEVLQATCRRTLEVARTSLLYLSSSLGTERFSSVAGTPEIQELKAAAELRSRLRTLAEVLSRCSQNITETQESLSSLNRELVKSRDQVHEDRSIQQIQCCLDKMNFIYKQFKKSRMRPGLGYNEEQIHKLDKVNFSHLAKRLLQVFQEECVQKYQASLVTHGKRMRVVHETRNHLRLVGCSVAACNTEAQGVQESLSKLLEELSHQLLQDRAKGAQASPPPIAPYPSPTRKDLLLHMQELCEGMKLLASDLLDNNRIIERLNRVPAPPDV
Description: Inhibition of human recombinant FLAG-IKKepsilon by TR-FRET assay

[3] = Inhibition of LPS-stimulated IL6 release in PBMC; type: functional; conditions: Homo sapiens
Fibroblast = assay: Inhibition of NF-kappaB translocation in TNF-alpha-induced human lung fibroblast cells; type: functional, cell-based
PBMC = assay: Inhibition of LPS-stimulated TNFalpha release in PBMC; type: functional, cell-based; conditions: Homo sapiens

Row | IC50 [1] | IC50 [2] | IC50 [3] | Structure (SMILES) | Activity (Fibroblast) | IC50 (PBMC)
1 | > 15.8 µM | – | – | CNC(=O)c1cc(-c2ccc(F)cc2)cc(-c2ccc(S(C)(=O)=O)cc2)c1N | – | –
2 | > 15.8 µM | – | – | COc1cc2ncn(-c3cc(OCc4ccccc4S(C)(=O)=O)c(C#N)s3)c2cc1OC [GSK-319347A] | – | –
3 | 0.158 µM | – | – | CS(=O)(=O)c1ccc(-c2cc(C(N)=O)c(N)c(-c3ccc(S(N)(=O)=O)cc3)c2)cc1 | – | –
4 | 7.94 µM | > 15.8 µM | – | NC(=O)c1cc(-c2ccccc2)cc(-c2cccc(S(N)(=O)=O)c2)c1N | – | –
5 | 0.158 µM | > 15.8 µM | – | NCCNNS(=O)(=O)c1ccc(-c2cc(-c3ccccc3)cc(C(N)=O)c2N)cc1 | – | –
6 | 1.58 µM | > 15.8 µM | – | NC(=O)c1cc(-c2ccc(Cl)cc2)cc(-c2ccc(S(N)(=O)=O)cc2)c1O | – | –
7 | 0.251 µM | > 15.8 µM | – | NC(=O)c1cc(-c2ccccc2)cc(-c2ccc(S(N)(=O)=O)cc2)c1N | – | –
8 | 7.94 µM | – | – | CS(=O)(=O)Nc1cccc(-c2cc(-c3ccccc3)cc(C(N)=O)c2N)c1 | – | –
9 | 0.251 µM | > 15.8 µM | – | NC(=O)c1cc(-c2ccccc2)cc(-c2ccc(S(=O)(=O)NNCCN3CCCC3)cc2)c1N | – | –
10 | 1.58 µM | > 15.8 µM | – | CS(=O)(=O)Nc1ccc(-c2cc(-c3ccccc3)cc(C(N)=O)c2N)cc1 [GSK-586581A] | – | –
11 | 3.98 µM | 3.98 µM | – | NC(=O)c1cc(-c2ccncc2)cc(-c2ccccc2)c1N [GSK-625137A] | – | –
12 | 7.94 µM | > 15.8 µM | – | CN(C)S(=O)(=O)c1ccc(-c2cc(-c3ccncc3)cc(C(N)=O)c2O)cc1 | – | –
13 | 0.316 µM | > 15.8 µM | – | NC(=O)c1cc(-c2ccccc2)cc(-c2ccc(S(=O)(=O)NNCCCN3CCOCC3)cc2)c1N | – | –
14 | 0.316 µM | > 15.8 µM | – | NC(=O)c1cc(-c2ccccc2)cc(-c2ccc(S(=O)(=O)NNC3CC3)cc2)c1N | – | –
15 | 0.2 µM | > 15.8 µM | – | NC(=O)c1cc(-c2ccc(F)cc2)cc(-c2ccc(S(N)(=O)=O)cc2)c1N | – | –
16 | > 15.8 µM | – | – | COc1c(C(N)=O)cc(-c2ccc(Cl)cc2)cc1-c1ccc(S(N)(=O)=O)cc1 [GSK-711701A] | – | –
17 | 0.251 µM | > 15.8 µM | – | COCCCNNS(=O)(=O)c1ccc(-c2cc(-c3ccccc3)cc(C(N)=O)c2N)cc1 | – | –

Row | IC50 [1] | IC50 [2] | IC50 [3] | Structure (SMILES) | Activity (Fibroblast) | IC50 (PBMC)
18 | > 15.8 µM | – | – | COc1c(C(N)=O)cc(-c2ccccc2)cc1-c1ccncc1 | – | –
19 | 0.398 µM | – | – | CS(=O)(=O)c1ccc(-c2cc(C(N)=O)c(N)c(-c3ccc(S(=O)(=O)N4CCCC4)cc3)c2)cc1 | – | –
20 | > 15.8 µM | > 15.8 µM | – | NC(=O)c1cc(-c2ccc(F)cc2)ccc1N | – | –
21 | 3.98 µM | > 15.8 µM | – | NC(=O)c1cc(-c2ccccc2)cc(-c2ccc(CS(N)(=O)=O)cc2)c1N | – | –
22 | > 15.8 µM | – | – | CNC(=O)c1cc(-c2ccc(F)cc2)cc(-c2ccc(S(=O)(=O)N3CCCC3)cc2)c1N [GSK-635416A] | – | –
23 | > 15.8 µM | > 15.8 µM | – | CN(C)c1cccc(-c2cc(-c3ccccc3)cc(C(N)=O)c2N)c1 | – | –
24 | 1.58 µM | > 15.8 µM | – | CS(=O)(=O)Nc1ccc(-c2cc(-c3ccc(Cl)cc3)cc(C(N)=O)c2N)cc1 | – | –
25 | 1 µM | > 15.8 µM | – | CNS(=O)(=O)c1ccc(-c2cc(-c3ccccc3)cc(C(N)=O)c2O)cc1 | – | –
26 | 0.1 µM | > 15.8 µM | 2 µM | NC(=O)c1cc(-c2ccc(Cl)cc2)cc(-c2ccc(S(N)(=O)=O)cc2)c1N | Active | 0.794 µM
27 | 0.251 µM | 1.58 µM | – | NC(=O)c1cc(-c2ccncc2)cc(-c2ccc(S(N)(=O)=O)cc2)c1N | – | –
28 | 1.58 µM | > 15.8 µM | – | NC(=O)c1cc(-c2ccc(F)cc2)cc(-c2ccncc2)c1N [GSK-620503A] | – | –
29 | > 15.8 µM | – | – | COc1ccc(-c2ccncc2)cc1C(N)=O [GSK-605714A] | – | –
30 | > 15.8 µM | – | – | COc1c(C(N)=O)cc(-c2ccncc2)cc1-c1ccccc1 | – | –
31 | 15.8 µM | > 15.8 µM | – | NC(=O)c1cc(-c2ccccc2)ccc1N | – | –
32 | 0.316 µM | > 15.8 µM | – | CN(C)CCCNNS(=O)(=O)c1ccc(-c2cc(-c3ccccc3)cc(C(N)=O)c2N)cc1 | – | –
33 | 0.631 µM | > 15.8 µM | – | NC(=O)c1cc(-c2ccc(F)cc2)cc(-c2ccc(S(=O)(=O)N3CCCC3)cc2)c1N | – | –
